In patent US20030114382A1, “Glycogen synthase kinase function in endothelial cells” (priority 2001, published 2003):

Tests used:
[1] = tested on: Akt phosphorylation; test: Immunoblot of Akt phosphorylation in HUVECs; type: cell-based, human; details: for Akt phosphorylation: HUVECs, single agent; for level of Akt phosphorylation: combined administration of PD98059 and SB203480, presence or absence of PI3K inhibition
Description: To examine the regulation of GSK3β phosphorylation, HUVECs were serum-starved for 15 hours, treated with the indicated agents for 1 hour, and stimulated with 10% fetal bovine serum.
Immunoblot analysis. HUVECs were washed in phosphate-buffered saline and harvested by scraping in 50 mM Tris-HCl (pH 7.2), 250 mM NaCl, 1% NP40, 0.05% SDS, 2 mM EDTA, 0.5% deoxycholic acid, 10 mM 13-glycerophosphate, 1 mM vanadate, 1 mM phenyl methyl sulfonyl fluoride (PMSF). One mini tablet of protease inhibitor cocktail (Roche, Summerville, N.J.) per 10 ml of lysis buffer, vanadate, and PMSF were added just prior to use. Protein concentration was determined with protein assay kit (Pierce, Rockford, Ill.). Protein (20 μg) was separated on SDS-polyacrylamide electrophoresis gel and transferred to a polyvinylidene difluoride membrane (Millipore, Bedford, Mass.). The membrane was blocked with T-PBS (1×PBS, 0.3% Tween-20) containing 3% dry milk and incubated with primary antibody overnight at 4° C. After three washes with T-PBS, the membrane was reblocked and incubated with secondary antibody for 1 hour at room temperature. ECL or ECL-PLUS (Amersham, Piscataway, N.J.) was used for detection. To reprobe the membrane, it was treated with Restore Western Blot stripping buffer (Pierce, Rockford, Ill.). The primary antibodies used were anti-phospho GSK-3β (Ser9) antibody (1:750 dilution, Cell Signaling Technology, Beverly, Mass.), anti-phospho Akt (Ser473) antibody (1:250 dilution, Cell Signaling Technology, Beverly, Mass.), anti-total GSK-3β antibody (1:1000 dilution, Santa Cruz, Santa Cruz, Calif.), and anti-a tubulin antibody (1:4000 dilution, Oncogene, Boston, Mass.). The secondary antibodies were anti-rabbit IgG/HRP conjugate or anti-mouse IgG/HRP conjugate (1:2500 dilution, Promega, San Luis Obispo, Calif.).

[2] = tested on: GSK3β phosphorylation at serine 9; test: Immunoblot of GSK3β phosphorylation at serine 9 in HUVECs; type: cell-based, human; details: for serum-induced phosphorylation of GSK3β: serum-starved HUVECs, 1 hour pretreatment with agent, 10% FBS 1 hour
Description: Cell culture and adenoviral vectors. Human umbilical vein ECs (HUVECs) were isolated as previously described (29) and cultured in EGM media (Clonetics, Walkersville, Md.). Four to six passage cells were used in this study. To examine the regulation of GSK3β phosphorylation, HUVECs were serum-starved for 15 hours, treated with the indicated agents for 1 hour, and stimulated with 10% fetal bovine serum.
Immunoblot analysis. HUVECs were washed in phosphate-buffered saline and harvested by scraping in 50 mM Tris-HCl (pH 7.2), 250 mM NaCl, 1% NP40, 0.05% SDS, 2 mM EDTA, 0.5% deoxycholic acid, 10 mM 13-glycerophosphate, 1 mM vanadate, 1 mM phenyl methyl sulfonyl fluoride (PMSF). One mini tablet of protease inhibitor cocktail (Roche, Summerville, N.J.) per 10 ml of lysis buffer, vanadate, and PMSF were added just prior to use. Protein concentration was determined with protein assay kit (Pierce, Rockford, Ill.). Protein (20 μg) was separated on SDS-polyacrylamide electrophoresis gel and transferred to a polyvinylidene difluoride membrane (Millipore, Bedford, Mass.). The membrane was blocked with T-PBS (1×PBS, 0.3% Tween-20) containing 3% dry milk and incubated with primary antibody overnight at 4° C. After three washes with T-PBS, the membrane was reblocked and incubated with secondary antibody for 1 hour at room temperature. ECL or ECL-PLUS (Amersham, Piscataway, N.J.) was used for detection. To reprobe the membrane, it was treated with Restore Western Blot stripping buffer (Pierce, Rockford, Ill.). The primary antibodies used were anti-phospho GSK-3β (Ser9) antibody (1:750 dilution, Cell Signaling Technology, Beverly, Mass.), anti-phospho Akt (Ser473) antibody (1:250 dilution, Cell Signaling Technology, Beverly, Mass.), anti-total GSK-3β antibody (1:1000 dilution, Santa Cruz, Santa Cruz, Calif.), and anti-a tubulin antibody (1:4000 dilution, Oncogene, Boston, Mass.).

| Structure (SMILES) | Akt phosphorylation [1] | induction of GSK3β phosphorylation by 8-bromo cAMP or forskolin ([2]; pretreatment with H89, serum-deprived HUVECs) | serum-induced phosphorylation of GSK3β [2] | level of Akt phosphorylation [1] |
| --- | --- | --- | --- | --- |
| O=S(=O)(NCCNC/C=C/c1ccc(Br)cc1)c1cccc2cnccc12 [H89] | promoted | blocked | inhibited |  |
| COc1cccc(-c2cc(=O)c3ccccc3o2)c1N [PD98059] | not |  | partially inhibited | detectably elevated |
| C[S+]([O-])c1ccc(-c2nc(-c3ccncc3)c(-c3ccc(F)cc3)[nH]2)cc1 (stereo not drawn) [SB203480] | not |  | partially inhibited | detectably elevated |
